Results published in the supplement of paper PMC10307832.

What was measured:
Assay in all cases: relative viability (nuclei count vs DMSO), 5 days (fraction); higher = more cells survive
[1] = compound: CC1=C(C(=NN1)C)CC2=C(C3=C(S2)N(C(=O)N(C3=O)C)CC(C)C)C(=O)N4C[C@@H](CO4)O + C[C@@H](Oc1cc(-c2cnn(C3CCNCC3)c2)cnc1N)c1c(Cl)ccc(F)c1Cl [Crizotinib] (partner 1 µM)
Summary of the method: (§1)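 After 5 days of treatment, lung cancer cells in 1536-well plates were fixed and stained in a single step (final 0.05% Triton X-100, 1% formaldehyde, 1 ug/ml Hoechst) and their nuclei counted on 4× images. Treatment had been applied by pin tool the day after seeding as one drug alone or as a fixed anchor-drug dose with five library-drug doses (not always all listed) in √10 steps. Relative viability is the nuclei count of treated wells divided by that of vehicle wells, and values are medians of duplicate plates.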

IDH-C35 + Dasatinib = compound: Cc1ccccc1C(C(=O)NC1CCCCC1)N(C(=O)Cn1ccnc1C)c1cccc(F)c1 [IDH-C35] + Cc1nc(Nc2ncc(C(=O)Nc3c(C)cccc3Cl)s2)cc(N2CCN(CCO)CC2)n1 [Dasatinib] (partner 0.075 µM)
Summary of the method: as §1

IDH-C35 + Luminespib = compound: Cc1ccccc1C(C(=O)NC1CCCCC1)N(C(=O)Cn1ccnc1C)c1cccc(F)c1 [IDH-C35] + CCNC(=O)c1noc(-c2cc(C(C)C)c(O)cc2O)c1-c1ccc(CN2CCOCC2)cc1 [Luminespib] (partner 0.01 µM)
Summary of the method: as §1

IDH-C35 + Navitoclax = compound: Cc1ccccc1C(C(=O)NC1CCCCC1)N(C(=O)Cn1ccnc1C)c1cccc(F)c1 [IDH-C35] + CC1(C)CCC(c2ccc(Cl)cc2)=C(CN2CCN(c3ccc(C(=O)NS(=O)(=O)c4ccc(N[C@H](CCN5CCOCC5)CSc5ccccc5)c(S(=O)(=O)C(F)(F)F)c4)cc3)CC2)C1 [Navitoclax] (partner 0.5 µM)
Summary of the method: as §1

Row | Cell Line | relative viability ([1]; first compound 0.0025 µM) | relative viability ([1]; first compound 0.007906 µM) | relative viability ([1]; first compound 0.025 µM) | relative viability ([1]; first compound 0.07906 µM) | relative viability ([1]; first compound 0.25 µM) | relative viability (IDH-C35 + Dasatinib; first compound 0.08 µM) | relative viability (IDH-C35 + Dasatinib; first compound 0.253 µM) | relative viability (IDH-C35 + Dasatinib; first compound 0.8 µM) | relative viability (IDH-C35 + Dasatinib; first compound 2.53 µM) | relative viability (IDH-C35 + Dasatinib; first compound 8 µM) | relative viability (IDH-C35 + Luminespib; first compound 0.08 µM) | relative viability (IDH-C35 + Luminespib; first compound 0.253 µM) | relative viability (IDH-C35 + Luminespib; first compound 0.8 µM) | relative viability (IDH-C35 + Luminespib; first compound 2.53 µM) | relative viability (IDH-C35 + Luminespib; first compound 8 µM) | relative viability (IDH-C35 + Navitoclax; first compound 0.08 µM) | relative viability (IDH-C35 + Navitoclax; first compound 0.253 µM) | relative viability (IDH-C35 + Navitoclax; first compound 0.8 µM) | relative viability (IDH-C35 + Navitoclax; first compound 2.53 µM) | relative viability (IDH-C35 + Navitoclax; first compound 8 µM)
1 | LU99A | 0.542 | 0.592 | 0.533 | 0.566 | 0.648 | 0.684 | 0.552 | 0.586 | 0.639 | 0.542 | 0.244 | 0.286 | 0.239 | 0.236 | 0.25 | 0.702 | 0.814 | 0.871 | 0.925 | 0.781
2 | LXF-289 | 0.817 | 0.735 | 0.818 | 0.789 | 0.818 | 0.276 | 0.25 | 0.252 | 0.221 | 0.214 | 0.512 | 0.631 | 0.654 | 0.697 | 0.676 | 0.968 | 0.931 | 0.961 | 0.896 | 0.987
3 | NCI-H23 | 0.519 | 0.613 | 0.499 | 0.568 | 0.604 | 0.779 | 0.718 | 0.738 | 0.901 | 0.864 | 0.207 | 0.224 | 0.201 | 0.202 | 0.227 | 0.792 | 0.828 | 0.883 | 0.992 | 0.807
4 | NCI-H322M | 1.03 | 1.03 | 0.758 | 0.927 | 0.998 | 0.244 | 0.253 | 0.26 | 0.247 | 0.243 | 0.921 | 0.784 | 0.826 | 0.833 | 0.942 | 1.34 | 1.12 | 1.23 | 1.15 | 1.2
5 | NCI-H441 | 0.715 | 0.774 | 0.608 | 0.889 | 0.945 | 0.629 | 0.753 | 0.536 | 0.673 | 0.541 | 0.26 | 0.306 | 0.293 | 0.293 | 0.399 | 0.694 |  | 0.568 | 0.582 | 0.675
6 | NCI-H460 | 0.865 | 1.1 | 0.848 | 1.12 | 0.948 | 0.379 | 0.512 | 0.49 | 0.479 | 0.495 | 0.0343 | 0.0424 | 0.0346 | 0.0408 | 0.0379 | 1.26 | 1.19 | 1.06 | 1.07 | 1.21
7 | NCI-H520 | 0.717 | 0.671 | 0.307 | 0.291 | 0.36 | 0.191 | 0.159 | 0.202 | 0.181 | 0.217 | 0.26 | 0.189 | 0.27 | 0.21 | 0.269 | 1.02 | 1.15 | 1.07 | 0.933 | 1.21
8 | NCI-H596 | 1.02 | 1.06 | 0.954 | 1.04 | 1.16 | 0.588 | 0.759 | 0.693 |  | 0.56 | 1.04 | 0.974 | 1.22 |  | 0.97 | 1.1 | 1 | 0.925 | 0.867 | 0.962
9 | NCI-H647 | 1.26 | 1.32 | 1.02 | 1.05 | 1.38 | 0.194 | 0.204 | 0.198 | 0.223 | 0.192 | 0.146 | 0.256 | 0.357 | 0.241 | 0.126 | 1.26 | 1.18 | 0.916 | 1.04 | 1.12
10 | NCI-H727 | 0.697 | 0.65 | 0.882 | 0.838 | 0.754 | 0.514 | 0.315 | 0.366 | 0.388 | 0.446 | 0.27 | 0.398 | 0.39 | 0.407 | 0.33 | 0.377 | 0.429 | 0.371 | 0.399 | 0.35
11 | NCI-H838 | 0.869 | 1.02 | 0.747 | 0.809 | 0.885 | 0.343 | 0.303 | 0.298 | 0.32 | 0.303 | 0.319 | 0.3 | 0.266 | 0.331 | 0.24 | 1.15 | 1.11 | 1.19 | 1.15 | 1.11
12 | NCI-H1355 | 1.07 | 1.09 | 1.09 | 1.05 | 1.14 | 0.76 | 0.727 | 0.667 | 0.651 | 0.742 | 0.703 | 0.72 | 0.693 | 0.722 | 0.72 | 0.952 | 0.928 | 0.934 | 0.938 | 0.996
13 | NCI-H1437 | 0.967 | 0.928 | 0.875 | 0.949 | 1.09 | 0.442 | 0.448 | 0.432 | 0.314 | 0.308 | 1.08 | 1.04 | 1.06 | 1.06 | 1.1 | 1.08 | 1.07 | 1.08 | 1.19 | 0.975
14 | NCI-H1650 | 1.05 | 1.08 | 0.973 | 1.04 | 1.06 | 0.328 | 0.35 | 0.328 | 0.269 | 0.304 | 0.207 | 0.182 | 0.214 | 0.2 | 0.199 | 1.23 | 1.21 | 1.19 | 1.24 | 1.17
15 | NCI-H1651 | 0.807 | 0.857 | 0.822 | 0.804 | 0.786 | 0.416 | 0.398 | 0.426 | 0.404 | 0.382 | 0.861 | 0.6 | 0.67 | 0.797 | 0.716 | 1.03 | 1.01 | 0.972 | 1.03 | 1.01
16 | NCI-H1666 | 1.04 | 1.16 | 1.05 | 0.977 | 1.08 | 0.784 | 0.807 | 0.794 | 0.795 | 0.728 | 0.984 | 0.979 | 1.04 | 1.04 | 1 | 1.03 | 0.977 | 0.961 | 1.07 | 0.881
